Measured values taken from ChEMBL document CHEMBL1156893, “Structure-activity relationships amongst 4-position quinoline methanol antimalarials that inhibit the growth of drug sensitive and resistant strains of Plasmodium falciparum” (Bioorg Med Chem Lett, 2010).
≈ marks a conversion by molar mass, not a printed value.

Columns and labels:
Plasmodium falciparum [1] = assay: Antimalarial activity against Plasmodium falciparum TM90C2A; format: functional, organism-based
Plasmodium falciparum [2] = assay: Antimalarial activity against chloroquine, pyrimethamine and mefloquine-resistant Plasmodium falciparum TM1C235; format: functional, organism-based
Plasmodium falciparum [3] = assay: Antimalarial activity against chloroquine and mefloquine-sensitive Plasmodium falciparum D6; format: functional
Plasmodium falciparum [4] = assay: Antimalarial activity against chloroquine-resistant and mefloquine-sensitive Plasmodium falciparum W2; format: functional, organism-based
[5] = Half life in mouse liver microsomes; format: ADME, Microsome
[6] = Cytotoxicity against mouse RAW264.7 cells; format: cell-based; settings: read-out: LC50 (the source's name)
Plasmodium berghei = assay: Antimalarial activity against Plasmodium berghei infected in ICR mice (Mus musculus) assessed as delay in mortality at 160 mg/kg, perorally for 3 days; format: functional, organism-based; design: dose 160 mg/kg
[7] = Apparent permeability from apical to basolateral side of MDCK cell monolayer expressing MDR1; format: ADME, cell-based, Canis lupus familiaris; settings: dog

Row | Compound | IC90 (Plasmodium falciparum [1]) [µg/mL] | IC90 (Plasmodium falciparum [2]) [µg/mL] | IC90 (Plasmodium falciparum [3]) [µg/mL] | IC90 (Plasmodium falciparum [4]) [µg/mL] | half-life [5] [min] | IC50 (Plasmodium falciparum [1]) [µg/mL] | CC50 [6] [µg/mL] | IC50 (Plasmodium falciparum [2]) [µg/mL] | IC50 (Plasmodium falciparum [4]) [µg/mL] | survival time (Plasmodium berghei) [days] | Papp A→B [7] [×10⁻⁶ cm/s]
1 | CCCCCCNCC(O)c1cc(C(F)(F)F)nc2c(C(F)(F)F)cccc12 (stereo not given) | 0.481 (≈ 1.18 µM) | 0.409 (≈ 1 µM) | 0.124 (≈ 0.304 µM) | 0.372 (≈ 0.911 µM) |  |  |  |  |  |  | 
2 | Cc1nc2ccccc2n1CC(O)c1cc(C(F)(F)F)nc2c(C(F)(F)F)cccc12 (stereo not given) | 0.32 (≈ 0.728 µM) | 0.31 (≈ 0.706 µM) | 0.11 (≈ 0.25 µM) | 0.22 (≈ 0.501 µM) | 9 |  |  |  |  |  | 
3 | OC(CNCC(F)(F)F)c1cc(C(F)(F)F)nc2c(C(F)(F)F)cccc12 (stereo not given) |  |  | > 0.5 |  |  | > 0.5 | 32.1 (≈ 78.9 µM) | > 0.5 | > 0.5 |  | 
4 | CCCCSCC(O)c1cc(C(F)(F)F)nc2c(C(F)(F)F)cccc12 (stereo not given) |  |  | > 0.5 |  |  | > 0.5 |  | > 0.5 | > 0.5 |  | 
5 | OC(CNc1ccccc1)c1cc(C(F)(F)F)nc2c(C(F)(F)F)cccc12 (stereo not given) | 0.5 (≈ 1.25 µM) | 0.437 (≈ 1.09 µM) | 0.484 (≈ 1.21 µM) | 0.377 (≈ 0.942 µM) |  |  | 22.3 (≈ 55.7 µM) |  |  |  | 
6 | CCc1nc(C)cn1CC(O)c1cc(C(F)(F)F)nc2c(C(F)(F)F)cccc12 (stereo not given) | 0.057 (≈ 0.137 µM) | 0.056 (≈ 0.134 µM) | 0.069 (≈ 0.165 µM) | 0.043 (≈ 0.103 µM) | 22 |  | 25.7 (≈ 61.6 µM) |  |  |  | 
7 | OC(CNCCF)c1cc(C(F)(F)F)nc2c(C(F)(F)F)cccc12 (stereo not given) |  |  | > 0.5 |  |  | > 0.5 |  | > 0.5 | > 0.5 |  | 
8 | CCCN(CCC)CC(O)c1cc(C(F)(F)F)nc2c(C(F)(F)F)cccc12 (stereo not given) | 0.03 (≈ 0.0735 µM) | 0.02 (≈ 0.049 µM) | 0.005 (≈ 0.0122 µM) | 0.02 (≈ 0.049 µM) |  |  | 33.2 (≈ 81.2 µM) |  |  |  | 
9 | OC(CNCCNCc1ccccc1)c1cc(C(F)(F)F)nc2c(C(F)(F)F)cccc12 (stereo not given) |  |  | 0.006 (≈ 0.0131 µM) | 0.029 (≈ 0.0634 µM) |  |  | 8.28 (≈ 18.1 µM) |  |  | 10 | 8.4
10 | CC(C)NCC(O)c1cc(C(F)(F)F)nc2c(C(F)(F)F)cccc12 (stereo not given) |  | 0.023 (≈ 0.0628 µM) | 0.005 (≈ 0.0136 µM) |  | 60 |  | 5.2 (≈ 14.2 µM) |  |  |  | 
11 | CCCCOCC(O)c1cc(C(F)(F)F)nc2c(C(F)(F)F)cccc12 (stereo not given) |  |  | > 0.5 |  |  | > 0.5 |  | > 0.5 | > 0.5 |  | 
12 | CC(C)CNCC(O)c1cc(C(F)(F)F)nc2c(C(F)(F)F)cccc12 (stereo not given) | 0.021 (≈ 0.0552 µM) | 0.015 (≈ 0.0394 µM) | 0.002 (≈ 0.00526 µM) | 0.013 (≈ 0.0342 µM) | 27 |  | 27.1 (≈ 71.3 µM) |  |  |  | 
13 | NCC(O)c1cc(C(F)(F)F)nc2c(C(F)(F)F)cccc12 (stereo not given) | > 0.5 | > 0.5 | 0.47 (≈ 1.45 µM) | 0.4 (≈ 1.23 µM) |  |  | 8.07 (≈ 24.9 µM) |  |  |  | 
14 | CCCCN(CCCC)CC(O)c1cc(C(F)(F)F)nc2c(C(F)(F)F)cccc12 (stereo not given) | 0.019 (≈ 0.0435 µM) | 0.027 (≈ 0.0619 µM) | 0.002 (≈ 0.00458 µM) | 0.011 (≈ 0.0252 µM) |  |  | 20.1 (≈ 46 µM) |  |  |  | 
15 | OC(c1cc(C(F)(F)F)nc2c(C(F)(F)F)cccc12)C1CCCCN1 (racemic) [MEFLOQUINE] |  |  |  |  |  |  |  |  |  |  | 9.4
16 | COCCCNCC(O)c1cc(C(F)(F)F)nc2c(C(F)(F)F)cccc12 (stereo not given) | 0.086 (≈ 0.217 µM) | 0.084 (≈ 0.212 µM) | 0.012 (≈ 0.0303 µM) | 0.051 (≈ 0.129 µM) |  |  | 25.2 (≈ 63.5 µM) |  |  |  | 
17 | CSCCCNCC(O)c1cc(C(F)(F)F)nc2c(C(F)(F)F)cccc12 (stereo not given) |  |  | 0.01 (≈ 0.0242 µM) | 0.036 (≈ 0.0873 µM) |  |  | 8.62 (≈ 20.9 µM) |  |  |  | 38
18 | OC(c1cc(C(F)(F)F)nc2c(C(F)(F)F)cccc12)C1CCCCN1 (stereo not given) [MEFLOQUINE] |  |  |  |  | > 60 |  |  |  |  |  | 
19 | CCCCCCC(O)c1cc(C(F)(F)F)nc2c(C(F)(F)F)cccc12 (stereo not given) |  |  | > 0.5 |  |  | > 0.5 |  | > 0.5 | > 0.5 |  | 
20 | OC(Cn1cnc2ccccc21)c1cc(C(F)(F)F)nc2c(C(F)(F)F)cccc12 (stereo not given) | 0.45 (≈ 1.06 µM) | 0.48 (≈ 1.13 µM) | 0.12 (≈ 0.282 µM) | 0.41 (≈ 0.964 µM) | 4 |  |  |  |  |  | 
21 | CCCCNCC(O)c1cc(C(F)(F)F)nc2c(C(F)(F)F)cccc12 (stereo not given) | 0.012 (≈ 0.0316 µM) | 0.009 (≈ 0.0237 µM) | 0.002 (≈ 0.00526 µM) | 0.001 (≈ 0.00263 µM) |  |  | 2.96 (≈ 7.8 µM) |  |  |  | 25
22 | OC(CNCCc1ccccc1)c1cc(C(F)(F)F)nc2c(C(F)(F)F)cccc12 (stereo not given) | 0.023 (≈ 0.0537 µM) | 0.043 (≈ 0.1 µM) | 0.019 (≈ 0.0444 µM) | 0.023 (≈ 0.0537 µM) |  |  | 9.64 (≈ 22.5 µM) |  |  |  | 
23 | OC(CNCc1ccccc1)c1cc(C(F)(F)F)nc2c(C(F)(F)F)cccc12 (stereo not given) | 0.151 (≈ 0.364 µM) | 0.086 (≈ 0.208 µM) | 0.019 (≈ 0.0459 µM) | 0.067 (≈ 0.162 µM) |  |  | 20.4 (≈ 49.3 µM) |  |  |  | 
24 | OCCNCC(O)c1cc(C(F)(F)F)nc2c(C(F)(F)F)cccc12 (stereo not given) | 0.388 (≈ 1.05 µM) | 0.485 (≈ 1.32 µM) | 0.26 (≈ 0.706 µM) | 0.49 (≈ 1.33 µM) |  |  |  |  |  |  | 
25 | CN(C)CC(O)c1cc(C(F)(F)F)nc2c(C(F)(F)F)cccc12 (stereo not given) | 0.173 (≈ 0.491 µM) | 0.079 (≈ 0.224 µM) | 0.02 (≈ 0.0568 µM) | 0.069 (≈ 0.196 µM) |  |  | 24.6 (≈ 69.9 µM) |  |  |  | 
26 | CCN(CC)CC(O)c1cc(C(F)(F)F)nc2c(C(F)(F)F)cccc12 (stereo not given) | 0.067 (≈ 0.176 µM) | 0.037 (≈ 0.0973 µM) | 0.009 (≈ 0.0237 µM) | 0.026 (≈ 0.0684 µM) |  |  | 2.09 (≈ 5.5 µM) |  |  |  | 
27 | COCCNCC(O)c1cc(C(F)(F)F)nc2c(C(F)(F)F)cccc12 (stereo not given) | 0.1 (≈ 0.262 µM) | 0.093 (≈ 0.243 µM) | 0.015 (≈ 0.0392 µM) | 0.059 (≈ 0.154 µM) |  |  | 38.2 (≈ 100 µM) |  |  |  | 32
28 | CC(C)c1nccn1CC(O)c1cc(C(F)(F)F)nc2c(C(F)(F)F)cccc12 (stereo not given) |  |  | > 0.5 |  | 10 | > 0.5 | 50.1 (≈ 120 µM) | > 0.5 | > 0.5 |  | 
29 | CCCc1nccn1CC(O)c1cc(C(F)(F)F)nc2c(C(F)(F)F)cccc12 (stereo not given) | 0.24 (≈ 0.575 µM) | 0.25 (≈ 0.599 µM) | 0.36 (≈ 0.863 µM) | 0.32 (≈ 0.767 µM) | 8 |  | 50.1 (≈ 120 µM) |  |  |  | 
30 | CNCC(O)c1cc(C(F)(F)F)nc2c(C(F)(F)F)cccc12 (stereo not given) |  |  | 0.017 (≈ 0.0503 µM) | 0.045 (≈ 0.133 µM) | 60 |  | 13.7 (≈ 40.4 µM) |  |  |  | 24
